Assay results reported in patent US20210052882A1, “ENHANCED TREATMENT VOLUME AND SELECTIVE ABLATION USING ELECTROPORATION WITH ADJUVANT CALCIUM” (Virginia Tech Intellectual Properties, Inc., priority 2019, published 2021).
Where “and” joins values, the source holds several entries; their conditions need not be identical. Equal values may be shown once.

Assays:
[1] = Properties of solutions (conductivity, osmolarity); type: physicochemical; details: base 250 mM sucrose, 1 mM MgCl2, 10 mM HEPES, pH 7.2-7.4
Protocol: All solutions consisted of the same base ingredients: 250 mM sucrose, 1 mM MgCl2, and 10 mM HEPES buffer in deionized water with a pH in the range of 7.2-7.4. […] Cell culture media contains things such as serum and antibiotics that may affect results. Finally, fresh solutions were added immediately prior to pulsing. All solutions were adjusted to have a pH between 7.2-7.4.

[2] = system: cells; assay: Toxicity of calcium chloride to cells at the concentrations used; type: cell-based
[3] = system: cells; details: nsPEFs; cited from earlier work
[4] = system: U251 malignant glioma cells; assay: H-FIRE ablation (lesion) area in collagen scaffolds, live/dead stain 24 hr after treatment; type: cell-based; details: for increase of ablation area compared to NaCl control / increase in ablation area compared to NaCl control: H-FIRE 800 V, 80 bursts
Protocol: U251 malignant glioma cells (Sigma Aldrich, 09063001) were maintained at 5% CO2 and 37° C. in Eagle's Minimum Essential Medium (Sigma Aldrich) supplemented with 1% penicillin/streptomycin (Life Technologies), 10% fetal bovine serum (Atlanta Biologicals), 1% non-essential amino acids (Sigma Aldrich) and 1 mM sodium pyruvate (Sigma Aldrich). Cells were routinely passaged at 80-90% confluence. […] PDMS wells were treated with 1% PEI (Acros Organics) for 10 min, 0.1% glutaraldehyde (Fisher Scientific) for 20 min, and then washed twice with deionized water prior to collagen seeding to ensure collagen adhesion during treatment. Commercial rat tail collagen type I (BD Biosciences) was neutralized using a solution of 10× Dulbecco's Modified Eagle Medium (10% total volume, Sigma Aldrich), 1 N NaOH (2% collagen volume, Sigma Aldrich), and 1× Dulbecco's Modified Eagle Medium (Sigma Aldrich) to a final concentration of 5 mg/mL. […] The collagen/cell solution was dispensed into PDMS wells and PDMS tops were used to mold the collagen flat while they polymerized in a cell culture incubator for 20 min. PDMS tops were then removed and cell culture media was added. Collagen scaffolds were maintained in the incubator for 24 hr prior to treatment. […] All solutions consisted of the same base ingredients: 250 mM sucrose, 1 mM MgCl2, and 10 mM HEPES buffer in deionized water with a pH in the range of 7.2-7.4. […] Cell culture media contains things such as serum and antibiotics that may affect results. Finally, fresh solutions were added immediately prior to pulsing. All solutions were adjusted to have a pH between 7.2-7.4. The osmolarity and conductivity of the buffers used are shown in Table 1: In this example, two hollow, stainless-steel needle electrodes (Howard electronics) were inserted into the scaffolds using a custom designed electrode housing. […] H-FIRE pulses were delivered using a high-voltage pulse generator (EPULSUS®-FBM1-5, EnergyPulse Systems, Lda). Voltage waveforms were captured using a high voltage probe and oscilloscope (DPO 2012, Tektronix). […] The pulses delivered were bipolar pulses having a positive pulse duration, inter-pulse delay, and negative pulse duration (see, e.g., FIG. 1B). Inter-pulse delay was kept constant (1 μs) while pulse width was varied (1, 2, 5, 10 μs). […] For reversible threshold experiments, scaffolds were imaged immediately after treatment. To visualize ablations, a live/dead stain was performed to visualize live and dead regions of cells in the scaffold. […] Scaffolds were then washed 2× with PBS prior to imaging using an inverted microscope (DMI 6000B, Leica Microsystems) with a 5× objective. Lesion areas were quantified for each treatment using a MATLAB algorithm. Since 24 h post treatment is sufficient to allow any reversibly electroporated cells to recover (as pore resealing happens on the order of minutes), staining the cells immediately after treatment and 24 h later allows for quantification of both the reversible zone of electroporation and irreversible zones of ablation. […] Scaffolds were then washed twice with PBS prior to imaging using an inverted microscope (DMI 6000B, Leica Microsystems) with a 5× objective, filter cubes, and an EM-CCD camera (Hamamatsu C9100). The appropriate filters were used to image Calcein AM (Ex:460-500, DC: 505, EM: 570-640) and propidium iodide (EX:545/26, DC:565, EM:605/70). […] Scaffolds were then imaged immediately after treatment. […] Reversible electroporation experiments were repeated at least six times. Discrepancies in the number of replicates between conditions were due to bubbles or other defects that may have changed the electric field distribution or prohibited a reliable measurement of ablation area. These scaffolds were excluded from analysis. Two-way ANOVA was used to test for differences in cell death area due to the different applied solutions and pulse waveforms. Tukey post-hoc comparisons were used to examine differences among treatment groups. […]

[5] = system: U251 malignant glioma cells; assay: Electric field threshold for cell death, ablation area mapped to finite element model
Protocol: For analysis, images were separated into two channels (green—Calcein AM, red—PI) and ablation areas for the green channel were analyzed for irreversible thresholds and red channels for reversible electroporation thresholds using a custom algorithm written in MATLAB. In cases where the algorithm was unable to accurately measure ablations, coordinate points from the algorithm outlining the ablation area were used as a guide to manually trace and measure the area in ImageJ. Ablation area measurements were mapped to a finite element model of the experimental setup to determine the corresponding electric field threshold.
Treatments were simulated using the finite element method (COMSOL Multiphysics, Burlington, Mass.) and the electric field and temperature distributions were determined. The mesh was refined until there was <1% change in the electric field and temperature values along a cutline between the electrodes. The mesh consisted of 102,615 total elements. […] From the finite element model of the collagen scaffold, a relationship between lesion area and electric field magnitude is determined by performing numerical integration on the surface of the scaffold for a range of electric field magnitudes (100-3000 V/cm). A curve was constructed and fit to the data using least squares fitting in MATLAB. […] This equation was used to accurately back out the electric field thresholds for each treatment condition without needing to manually determine them using COMSOL.
From the finite element model, it is possible to determine the electric field threshold required for cell death.
Using the finite element model of H-FIRE treatment in the scaffold, the corresponding electric field thresholds for each ablation area were characterized.

[6] = system: cells; details: cited from earlier work
[7] = 450 V, 1 Hz, 100 μs; 80 pulses for IRE, 8 pulses for ECT; cited from earlier work
[8] = system: U251 malignant glioma cells; assay: Reversible electroporation zone in collagen scaffolds imaged immediately after H-FIRE treatment; type: cell-based; details: for difference between reversible and irreversible electroporation areas: FIG. 10
Protocol: After pulsing, CaCl2, NaCl, KCl, and CaCl2/NaCl solutions were removed and cell culture media was added to each scaffold. For irreversible threshold experiments, the scaffolds were returned to the incubator for 24 hr prior to live/dead staining. For reversible threshold experiments, scaffolds were imaged immediately after treatment.
To visualize ablations, a live/dead stain was performed to visualize live and dead regions of cells in the scaffold. Scaffolds were incubated with 2 μM Calcein AM and 23 μM propidium iodide in phosphate buffered saline (PBS) for 30 minutes at room temperature. Scaffolds were then washed 2× with PBS prior to imaging using an inverted microscope (DMI 6000B, Leica Microsystems) with a 5× objective. Lesion areas were quantified for each treatment using a MATLAB algorithm. Since 24 h post treatment is sufficient to allow any reversibly electroporated cells to recover (as pore resealing happens on the order of minutes), staining the cells immediately after treatment and 24 h later allows for quantification of both the reversible zone of electroporation and irreversible zones of ablation.
To stain the scaffolds, media was removed and replaced with phosphate buffered saline (PBS) containing 2 μM Calcein AM (Invitrogen) and 23 μM PI (Invitrogen) and incubated at room temperature for 30 min. Scaffolds were then washed twice with PBS prior to imaging using an inverted microscope (DMI 6000B, Leica Microsystems) with a 5× objective, filter cubes, and an EM-CCD camera (Hamamatsu C9100). The appropriate filters were used to image Calcein AM (Ex:460-500, DC: 505, EM: 570-640) and propidium iodide (EX:545/26, DC:565, EM:605/70). To determine the reversible zone of electroporation, treatment followed the same electroporation protocol, but Calcein AM and PI were added to the CaCl2 and NaCl solutions at all steps prior to pulsing. Scaffolds were then imaged immediately after treatment.
Irreversible electroporation experiments were repeated 6-12 times for each condition. Reversible electroporation experiments were repeated at least six times. Discrepancies in the number of replicates between conditions were due to bubbles or other defects that may have changed the electric field distribution or prohibited a reliable measurement of ablation area. These scaffolds were excluded from analysis. Two-way ANOVA was used to test for differences in cell death area due to the different applied solutions and pulse waveforms. Tukey post-hoc comparisons were used to examine differences among treatment groups. Statistical analyses were performed with a confidence level of α=0.05 (MP Pro 14). Results are shown as means±standard deviation.
To investigate how CaCl2 and NaCl treatments affect permeabilization of the cells, the areas for reversible electroporation and their corresponding reversible electric field thresholds were characterized. Reversible electroporation thresholds for H-FIRE treatment have not been extensively characterized, making this work one of the first to quantify reversible thresholds for a range of unexplored pulse durations.

With `[Ca+2].[Cl-].[Cl-]` [CaCl2, calcium chloride] the Conductivity ([1]; 1 mM solution) was 0.075 ± 0.004 S/m, the Osmolarity ([1]; 1 mM solution) was 289 mOsm/L and the Conductivity ([1]; 5 mM solution) was 0.131 S/m. The Osmolarity ([1]; 5 mM solution) was 300 mOsm/L, the toxicity to cells [2] was “non-toxic” and the “cell swelling and mode of cell death” value [3] was “experienced necrosis”. The “increase of ablation area compared to NaCl control” value (“increase of ablation area” for short) ([4]; 1 mM, 1-1-1 waveform) was about 2.3 ×, the “increase of ablation area” value ([4]; 1 mM, 2-1-2 waveform) was 4.4 × and the “increase of ablation area” value ([4]; 1 mM, 5-1-5 waveform) was 6.1 ×. For the same compound, the “increase of ablation area” value ([4]; 1 mM, 10-1-10 waveform) was 3.42 ×, the “increase in ablation area compared to NaCl control” value (from here on “increase in ablation area”) ([4]; 5 mM, 1-1-1 waveform) was 3.4 × and the “increase in ablation area” value ([4]; 5 mM, 2-1-2 waveform) was 4.37 ×. For the same compound, the “increase in ablation area” value ([4]; 5 mM, 5-1-5 waveform) was 5.24 ×, the “increase in ablation area” value ([4]; 5 mM, 10-1-10 waveform) was 2.66 × and the “lesion size compared with an IRE treatment without calcium” value ([4]; 5 mM, same applied energy, 2, 5 and 10 μs pulse widths) was “comparable in size or larger”. The “ablation (lesion) sizes, calcium groups versus NaCl groups” value ([4]; H-FIRE, all pulse patterns) was “statistically significantly larger”, the “5 mM CaCl2 areas versus 1 mM CaCl2 areas” value ([4]; after 24 h, shorter pulse durations) was “larger” and the “reduction of electric field threshold compared to NaCl control” value (from here on “reduction … to NaCl control”) ([5]; 1 mM, 1-1-1 waveform) was 1.24 ×. The “reduction … to NaCl control” value ([5]; 1 mM, 2-1-2 waveform) was 1.48 ×, the “reduction … to NaCl control” value ([5]; 1 mM, 2-2-2 waveform) was 1.5 × and the “reduction … to NaCl control” value ([5]; 1 mM, 5-1-5 waveform) was 2.05 ×. The “reduction … to NaCl control” value ([5]; 1 mM, 5-5-5 waveform) was 2.1 ×, the “reduction … to NaCl control” value ([5]; 1 mM, 10-1-10 waveform) was 2.2 × and 2.19 × and the “reduction of electric field threshold, 5 mM NaCl to 5 mM CaCl2” value (from here on “reduction … to 5 mM CaCl2”) ([5]; 1-1-1 waveform) was 1.46 ×. For the same compound, the “reduction … to 5 mM CaCl2” value ([5]; 2-1-2 waveform) was 1.77 × and 1.91 ×, the “reduction … to 5 mM CaCl2” value ([5]; 5-1-5 waveform) was 2.49 × and 2.43 × and the “reduction … to 5 mM CaCl2” value ([5]; 10-1-10 waveform) was 1.92 × and 1.83 ×. The electric field threshold ([5]; H-FIRE 10-1-10 waveform with calcium, concentration not given) was 784±107 V/cm, the electric field threshold ([5]; H-FIRE 10-1-10 waveform, 1 mM) was 771±129 V/cm and the electric field threshold ([5]; IRE treatment) was 467±67 V/cm. For the same compound, the “cell death, ECT pulses with calcium versus electroporation alone” value [6] was “more cell death”, the “cellular ATP, ECT pulses with calcium versus electroporation alone” value [6] was “greater decrease” and the “lesion area for IRE or ECT treatment when CaCl2 is added” value [7] was “greatly increased”. For the same compound, the “reversible zone larger than the 1 mM NaCl zone” value ([8]; 1 mM CaCl2, 2-1-2 waveform) was 1.56 ×, the “reversible zone larger than the 1 mM NaCl zone” value ([8]; 1 mM CaCl2, 5-1-5 waveform) was 1.7 × and the “reversible zone larger than the 1 mM NaCl zone” value ([8]; 1 mM CaCl2, 10-1-10 waveform) was 1.42 ×. The “reversible zone larger than the 1 mM NaCl zone” value ([8]; 5 mM CaCl2, 2-1-2 waveform) was 1.66 ×, the “reversible zone larger than the 1 mM NaCl zone” value ([8]; 5 mM CaCl2, 5-1-5 waveform) was 1.73 × and the “reversible zone larger than the 1 mM NaCl zone” value ([8]; 5 mM CaCl2, 10-1-10 waveform) was 1.46 ×. The “reversible zones larger than irreversible zones” value ([8]; 2-1-2 waveform, 1 mM) was 2.62 ×, the “reversible zones larger than irreversible zones” value ([8]; 2-1-2 waveform, 5 mM) was 1.47 × and the “reversible zones larger than irreversible zones” value ([8]; 5-1-5 waveform, 1 mM) was 1.67 ×. For the same compound, the “reversible zones larger than irreversible zones” value ([8]; 5-1-5 waveform, 5 mM) was 1.3 ×, the “reversible zones larger than irreversible zones” value ([8]; 10-1-10 waveform, 1 mM) was 1.32 × and the “reversible zones larger than irreversible zones” value ([8]; 10-1-10 waveform, 5 mM) was 1.59 ×. The “difference between reversible and irreversible electroporation areas” value [8] was “decreased” and the “difference between 1 mM and 5 mM treatments, reversible case” value ([8]; imaged immediately after treatment) was “no statistically significant difference”.
With `[Cl-].[K+]` [KCl, potassium chloride] the Conductivity ([1]; 1 mM solution) was 0.064 S/m, the Osmolarity ([1]; 1 mM solution) was 289 mOsm/L and the “ablation size relative to the NaCl control” value ([4]; 1 mM, H-FIRE) was “did not result in statistically significant ablation size”.
Work on `[Cl-].[Na+]` [NaCl, sodium chloride, reference compound] yielded a Conductivity ([1]; 1 mM solution) of 0.056 ± 0.001 S/m, an Osmolarity ([1]; 1 mM solution) of 287 mOsm/L and a Conductivity ([1]; 5 mM solution) of 0.089 S/m. The Osmolarity ([1]; 5 mM solution) was 291 mOsm/L, the “visible lesion after H-FIRE” value ([4]; shorter pulse widths) was “no visible lesion” and the electric field threshold ([5]; H-FIRE 10-1-10 waveform, 1 mM) was 1641±159 V/cm. For the same compound, the electric field threshold ([5]; IRE treatment) was 698±103 V/cm, the “reversible areas, NaCl solutions versus CaCl2 counterparts” value ([8]; 1 mM and 5 mM, all waveforms) was “smaller reversible areas” and the “reversible zones larger than irreversible zones” value ([8]; 2-1-2 waveform, 1 mM) was 4.68 ×. For the same compound, the “reversible zones larger than irreversible zones” value ([8]; 2-1-2 waveform, 5 mM) was 3.88 ×, the “reversible zones larger than irreversible zones” value ([8]; 5-1-5 waveform, 1 mM) was 5.58 × and the “reversible zones larger than irreversible zones” value ([8]; 5-1-5 waveform, 5 mM) was 3.94 ×. For the same compound, the “reversible zones larger than irreversible zones” value ([8]; 10-1-10 waveform, 1 mM) was 3.17 ×, the “reversible zones larger than irreversible zones” value ([8]; 10-1-10 waveform, 5 mM) was 2.94 × and the “difference between reversible and irreversible electroporation areas” value [8] was “largest”.
